Assay in all cases: growth of human tumour cells (NCI), 48 h
Test [1] relates to 786-0 renal.
The test system of test [2] is COLO 205 colon.
Test [3] deals with MOLT-4 leukemia.
For test [4], the system named is NCI-H522 lung.
Test [5] deals with OVCAR-8 ovarian.
The test system of test [6] is SF-295 CNS.
The subject of test [7] is SR leukemia.
The subject of test [8] is UACC-257 melanoma.
Test [9] has as its system SNB-75 CNS.

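Compound exposure: 48 hours, 5 concentrations, 96-well plates. GI50 = concentration required for 50% inhibition of growth. TGI: concentration producing complete growth inhibition.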

On to `COc1ccc2c3c([nH]c2c1[N+](=O)[O-])C(C)N(C(=O)/C=C/c1ccccc1)CC3` (centres undefined), for which the TGI in [1] is 25.8 µM; in test [2] it was more than 100 µM; in test [3], more than 100 µM; in test [4] it was more than 100 µM; in test [5], more than 100 µM; in test [6], 5.88 µM. Further, the TGI in test [7] and in test [8] was more than 100 µM throughout.

Consider `CC(=O)N1C(=O)C(=O)c2cc(Cl)ccc21`, for which the TGI in [1], in [2], in test [3], in test [5], in test [6] and in test [9] was more than 100 µM each time. The compound also came in with a TGI in [7] of more than 100 µM.

For `CCCCCCCCCCSS(=O)(=O)c1ccc(C)cc1`, the TGI was found to be 17.8 µM in test [1]; 33.6 µM in test [2]; 6.73 µM in test [3]; 17.2 µM in test [4]; 32.2 µM in test [5]; 18.1 µM in [6]. Moreover, the TGI was found to be 5.22 µM in [9], 27.8 µM in test [7] and 19.8 µM in test [8].

In the case of `CC(=O)[CH-]C(=O)c1ccccc1.CC(=O)[CH-]C(=O)c1ccccc1.CC(C)CCCC(C)[C@H]1CCC2[C@@H]3CCC4C[C@@H]([O-])CC[C@]4(C)C3CC[C@@]21C.CC(C)CCCC(C)[C@H]1CCC2[C@@H]3CCC4C[C@@H]([O-])CC[C@]4(C)C3CC[C@@]21C.Cl.[Ti+4]` (some centres undefined), the GI50 in test [1], in [2], in test [3], in test [4], in test [5] and in test [6] was more than 25 µM in each case. Besides, the GI50 in test [9] and in [8] was more than 25 µM in each case. Besides, the TGI in test [1], in [2], in test [3], in test [4], in test [5] and in [6] was more than 25 µM throughout. Besides, the TGI in test [9] and in test [8] was more than 25 µM each time.

As for `C=CCCC12CCCC(=O)C1Sc1ccc3ccccc3c12` (centres undefined), the TGI was 48.2 µM in [1]; 29.1 µM in test [2]; 39.6 µM in test [3]; 35 µM in test [4]; more than 100 µM in test [5]; 51.2 µM in test [6]. Moreover, the TGI in test [9] is 82.9 µM; in test [8], 55.7 µM.

Turning to `CC(C)[C@H](COC(C)(C)C)N=CN1CSc2ccccc21`, the TGI in test [1] is more than 100 µM; in test [2], 39.4 µM; in [3], more than 100 µM; in test [4], more than 100 µM; in test [5], more than 100 µM; in test [6] it was 67.4 µM. Besides, the TGI in test [9] turned out to be 77.1 µM.

Consider `COc1ccc(/C=C2/CCOC2=O)cc1`, for which the GI50 in test [1], in [2], in [3], in test [5], in test [9] and in [7] was more than 100 µM each time. In [8], the GI50 was more than 100 µM. Besides, the TGI in test [1], in test [2], in test [3], in test [5], in test [9] and in [7] was more than 100 µM throughout. The TGI in test [8] is more than 100 µM.

On to `O=C(CN1C(=O)c2ccccc2C1=O)OC1C=CCCC1` (centres undefined), for which the TGI in [1], in [2], in test [3], in test [4], in test [5] and in test [9] was more than 100 µM throughout. Further, the TGI in test [7] and in [8] was more than 100 µM throughout.

Regarding `COC(=O)/C=C\C1C(C(=O)OC)C2(C(=O)OC)CCC1(C(=O)OC)N2` (centres undefined), the TGI is 28.6 µM in test [1]; 13.5 µM in test [2]; 14.7 µM in [3]; 1.76 µM in test [4]; 19 µM in test [5]; 44.8 µM in [6]. In addition, the TGI in test [9] stood at 32.9 µM; in [7], 16.7 µM; in test [8] it was 19.2 µM.

`COc1ccc2c(CCNS(=O)(=O)c3ccccc3)c(C(C)=O)[nH]c2c1[N+](=O)[O-]`: the TGI in test [1], in test [2], in [3], in test [4], in test [5] and in [6] was more than 100 µM in each case. Further, the TGI in test [7] and in test [8] was more than 100 µM in each case.

Take `CC[O+]=c1cccc2ssnc1-2`: the TGI in test [1] is more than 100 µM; in test [2] it was more than 100 µM; in test [3], more than 100 µM; in test [4], 82.6 µM; in test [5], more than 100 µM; in test [6], more than 100 µM. For the same compound, the TGI in test [9] was 72.5 µM; in test [8], more than 100 µM.

With `CC(=O)C1C(=O)C(=O)N(c2ccc(Cl)cc2C)C1=O` (centres undefined), the TGI in [1], in test [2], in [3], in test [4], in test [5] and in [6] was more than 100 µM in each case. The TGI in test [7] and in test [8] was more than 100 µM in each case.

With `O=c1cc(-c2ccccc2)oc2cc(OCc3cn(Cc4ccc(F)cc4)nn3)cc(O)c12`, the GI50 is 9.26 µM in [1]; more than 100 µM in test [2]; more than 100 µM in [3]; 6.6 µM in [4]; 3.76 µM in [5]; 10.2 µM in test [6]. The GI50 in test [9] was 3.74 µM; in test [8] it was more than 100 µM. The TGI in test [1] is 42.1 µM; in test [2] it was more than 100 µM; in [3] it was more than 100 µM; in test [4], more than 100 µM; in [5] it was more than 100 µM; in [6] it was 46.8 µM. Further, the figures for the TGI in [9] and in test [8] were 28 µM and more than 100 µM, respectively.

As to `CCC1(c2ccncc2)CCC(=O)NC1=O` (centres undefined), the TGI in test [1], in test [2], in test [3], in test [5], in [6] and in test [9] was more than 100 µM throughout. In addition, the TGI in [7] and in [8] was more than 100 µM in each case.

Values taken from PubChem BioAssay (NCI).
